Assay results published in patent US10844051B2, “Substituted oxazoles for the treatment of cancer” (THE ROYAL INSTITUTION FOR THE ADCANCEMENT OF …, priority 2015, dated 2020).

Key:
[1] = system: LNCaP cells; experiment: MTT cytotoxicity assay in ETV1-positive LNCaP cells; assay type: cell-based; conditions: 72 hours
Procedure: FIG. 1.8 Cytotoxicity of compounds 827 and 832 in the ETV1-postive LNCaP cells as evaluated by MTT assay (72 hours).

[2] = target: T1, ETV1 (Homo sapiens, UniProt P50549); experiment: ETV1-dependent reporter assay in HEK293 cells; assay type: cell-based; conditions: 48 hours
T1 construct: expressed in transfected cells; host or cells: HEK293
T1 sequence (P50549 1-477): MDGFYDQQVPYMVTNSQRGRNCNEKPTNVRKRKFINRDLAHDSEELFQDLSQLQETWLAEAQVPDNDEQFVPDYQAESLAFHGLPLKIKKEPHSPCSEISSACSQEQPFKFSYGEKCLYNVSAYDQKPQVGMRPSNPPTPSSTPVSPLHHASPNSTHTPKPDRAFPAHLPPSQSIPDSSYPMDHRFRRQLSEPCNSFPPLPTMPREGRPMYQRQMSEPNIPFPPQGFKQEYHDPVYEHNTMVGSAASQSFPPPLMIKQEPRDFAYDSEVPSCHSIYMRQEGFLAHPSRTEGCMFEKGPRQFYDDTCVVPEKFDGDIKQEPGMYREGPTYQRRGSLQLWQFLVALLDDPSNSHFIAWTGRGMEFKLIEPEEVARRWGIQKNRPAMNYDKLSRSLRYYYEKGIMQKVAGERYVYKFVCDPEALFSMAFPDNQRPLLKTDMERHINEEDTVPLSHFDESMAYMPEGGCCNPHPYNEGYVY
Procedure: HEK293 cells were transiently transfected with empty vector (for the NT) or ERG-expressing plasmid as well as pRL-TK (internal control) and PUx3-Luc reporter. Cells were then exposed to DMSO vehicle or compounds at designated doses for 48 hours. Experiments were done in triplicate.
Experiments were done as described above in FIG. 1.1a) except that ERG plasmid was replaced by ETV1 plasmid.

Row | Structure (SMILES) | cytotoxicity in ETV1-positive LNCaP cells (MTT) [1] | ETV1 inhibition in ETV1-dependent reporter assay [2]
1 | c1coc(-c2nc(Cc3c[nH]c4ccccc34)oc2-c2ccco2)c1 [Compound 827] | cytotoxic | ETV1 inhibitors
2 | c1coc(-c2nc(Cc3c[nH]c4ccccc34)[nH]c2-c2ccco2)c1 [Compound 832] | cytotoxic | ETV1 inhibitors
